In the supplement of paper PMC10307832:

What was measured:
Assay in all cases: relative viability (nuclei count vs DMSO), 5 days (fraction); higher = more cells survive
LCLC-97TM1 = system: LCLC-97TM1
Outline: (§1)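 Dosing by pin tool came one day after lung cancer cell lines were seeded in 1536-well plates, using either one drug or a fixed anchor-drug dose plus five library-drug doses (not always all listed) in √10 steps. After 5 days, nuclei were counted on 4× images. Relative viability is treated-well nuclei count divided by vehicle-well nuclei count, and values are medians of duplicate plates.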

HCC-827 = system: HCC-827
Outline: as §1

NCI-H1437 = system: NCI-H1437
Outline: as §1

NCI-H1666 = system: NCI-H1666
Outline: as §1

NCI-H2087 = system: NCI-H2087
Outline: as §1

NCI-H1975 = system: NCI-H1975
Outline: as §1

HCC-44 = system: HCC-44
Outline: as §1

LU99A = system: LU99A
Outline: as §1

LOU-NH91 = system: LOU-NH91
Outline: as §1

H3255 = system: H3255
Outline: as §1

## Nc1ccn([C@@H]2O[C@H](CO)[C@@H](O)[C@@H]2O)c(=O)n1 [Cytarabine] + CC1(C)CCC(c2ccc(Cl)cc2)=C(CN2CCN(c3ccc(C(=O)NS(=O)(=O)c4ccc(N[C@H](CCN5CCOCC5)CSc5ccccc5)c(S(=O)(=O)C(F)(F)F)c4)cc3)CC2)C1 [Navitoclax] (partner 0.5 µM)
LCLC-97TM1; first compound 0.005 µM
  relative viability: 0.401
LCLC-97TM1; first compound 0.01581 µM
  relative viability: 0.283
LCLC-97TM1; first compound 0.05 µM
  relative viability: 0.171
LCLC-97TM1; first compound 0.1581 µM
  relative viability: 0.107
LCLC-97TM1; first compound 0.5 µM
  relative viability: 0.115
HCC-827; first compound 0.005 µM
  relative viability: 0.615
HCC-827; first compound 0.01581 µM
  relative viability: 0.529
HCC-827; first compound 0.05 µM
  relative viability: 0.398
HCC-827; first compound 0.1581 µM
  relative viability: 0.264
HCC-827; first compound 0.5 µM
  relative viability: 0.252
NCI-H1437; first compound 0.005 µM
  relative viability: 0.875
NCI-H1437; first compound 0.01581 µM
  relative viability: 0.637
NCI-H1437; first compound 0.05 µM
  relative viability: 0.469
NCI-H1437; first compound 0.1581 µM
  relative viability: 0.214
NCI-H1437; first compound 0.5 µM
  relative viability: 0.175
NCI-H1666; first compound 0.005 µM
  relative viability: 0.755
NCI-H1666; first compound 0.01581 µM
  relative viability: 0.796
NCI-H1666; first compound 0.05 µM
  relative viability: 0.718
NCI-H1666; first compound 0.1581 µM
  relative viability: 0.41
NCI-H1666; first compound 0.5 µM
  relative viability: 0.355
NCI-H2087; first compound 0.005 µM
  relative viability: 0.973
NCI-H2087; first compound 0.01581 µM
  relative viability: 1.04
NCI-H2087; first compound 0.05 µM
  relative viability: 0.924
NCI-H2087; first compound 0.1581 µM
  relative viability: 0.542
NCI-H2087; first compound 0.5 µM
  relative viability: 0.452
NCI-H1975; first compound 0.005 µM
  relative viability: 0.944
NCI-H1975; first compound 0.01581 µM
  relative viability: 1.26
NCI-H1975; first compound 0.05 µM
  relative viability: 1.1
NCI-H1975; first compound 0.1581 µM
  relative viability: 0.567
NCI-H1975; first compound 0.5 µM
  relative viability: 0.359
HCC-44; first compound 0.005 µM
  relative viability: 0.949
HCC-44; first compound 0.01581 µM
  relative viability: 1.01
HCC-44; first compound 0.05 µM
  relative viability: 0.534
HCC-44; first compound 0.1581 µM
  relative viability: 0.563
HCC-44; first compound 0.5 µM
  relative viability: 0.26
LU99A; first compound 0.005 µM
  relative viability: 0.906
LU99A; first compound 0.01581 µM
  relative viability: 0.826
LU99A; first compound 0.05 µM
  relative viability: 0.771
LU99A; first compound 0.1581 µM
  relative viability: 0.726
LU99A; first compound 0.5 µM
  relative viability: 0.56
LOU-NH91; first compound 0.005 µM
  relative viability: 0.693
LOU-NH91; first compound 0.01581 µM
  relative viability: 0.606
LOU-NH91; first compound 0.05 µM
  relative viability: 0.463
LOU-NH91; first compound 0.1581 µM
  relative viability: 0.332
LOU-NH91; first compound 0.5 µM
  relative viability: 0.35
H3255; first compound 0.005 µM
  relative viability: 0.451
H3255; first compound 0.01581 µM
  relative viability: 0.506
H3255; first compound 0.05 µM
  relative viability: 0.411
H3255; first compound 0.1581 µM
  relative viability: 0.325
